Assay results reported in patent US20080249042A1, “All-Trans-Retinol: All-Trans-13,14-Dihydroretinol Saturase and Methods of Its Use” (UNIVERSITY OF WASHINGTON, priority 2004, published 2008).

Assay: Liver retinoids of Lrat-/- mice 3 h after gavage with all-trans-DROL
Type: in vivo, mouse
Details: 3 h post-gavage
Source text: Metabolism of Retinoids in Vivo. All animal experiments employed procedures approved by the University of Washington and conformed to recommendations of the American Veterinary Medical Association Panel on Euthanasia and recommendations of the Association of Research for Vision and Ophthalmology. Animals were maintained on a 12-h light and 12-h dark cycle. All manipulations were done under dim red or infrared light (>560 nm). Most experiments used 6-12-week-old mice. Lrat−/− mice were genotyped as described previously. Batten, et al. J. Biol. Chem. 279:10422-10432, 2004. Animals were maintained on a control chow diet up to 1 h prior to oral gavage. The appropriate amount of all-trans-ROL palmitate, all-trans-DROL, or all-trans-RA was dissolved in vegetable oil and administered by oral gavage 3 h prior to analysis.
Analysis of Retinoids. Liver (1 g) from retinoid gavaged or naive mice was homogenized in 2 ml of 137 mM NaCl, 2.7 mM KCl, and 10 mM sodium phosphate (pH 7.4) for 30 s using a Polytron homogenizer. 10 μl of 5 M NaOH was added to 3 ml of the ethanolic extract, and the nonpolar retinoids were extracted using 5 ml of hexane. The extraction was repeated, and the organic phases were combined, dried under vacuum, resuspended in hexane, and examined by normal phase HPLC using a normal phase column (Beckman Ultrasphere Si 5μ, 4.6×250 mm). […] The HPLC elution conditions were […], 100% buffer A for 40 min, 100% buffer B for 10 min, and 10 min equilibration in buffer A. The elution profiles of RA and DRA were monitored using an online diode array detector set at 350 and 290 nm, respectively. […] The measured area of absorbance was converted to picomoles based on a calibration of the HPLC columns using a known amount of all-trans-RA or all-trans-ROL (Sigma) and all-trans-DROL or all-trans-DRA (synthetic standards). The extraction efficiency was monitored by spiking a tissue sample with [^3H]RA (PerkinElmer Life Sciences) and monitoring the radioactivity recovered from the HPLC column. […]

CC1=C(/C=C/C(C)=C/C=C/C(C)CC(=O)O)C(C)(C)CCC1 (stereo not drawn) [all-trans-DRA, all-trans-13,14-dihydroretinoic acid]
Level in liver after gavage with all-trans-DROL: significant levels
